In PubChem BioAssay (NCI):
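These data come from cells grown in 96-well plates and exposed to compound for 48 hours at five concentrations. At the TGI there is no net growth.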

How the values were obtained:
Assay in all cases: DTP human tumour cell line panel, 48 h
T-47D breast = system: T-47D breast
MCF7 breast = system: MCF7 breast
RXF 393 renal = system: RXF 393 renal
HOP-92 NSCLC = system: HOP-92 NSCLC
786-0 renal = system: 786-0 renal
RPMI-8226 leukemia = system: RPMI-8226 leukemia
IGROV1 ovarian = system: IGROV1 ovarian
SNB-75 CNS = system: SNB-75 CNS
HCT-116 colon = system: HCT-116 colon
NCI-H522 lung = system: NCI-H522 lung
SK-MEL-28 melanoma = system: SK-MEL-28 melanoma
CAKI-1 renal = system: CAKI-1 renal
MDA-MB-435 = system: MDA-MB-435
ACHN renal = system: ACHN renal
SF-268 CNS = system: SF-268 CNS
PC-3 prostate = system: PC-3 prostate
UACC-62 melanoma = system: UACC-62 melanoma
MALME-3M melanoma = system: MALME-3M melanoma
SN12C renal = system: SN12C renal
SW-620 colon = system: SW-620 colon
SK-OV-3 ovarian = system: SK-OV-3 ovarian
LOX IMVI melanoma = system: LOX IMVI melanoma
U251 CNS = system: U251 CNS
HCC-2998 colon = system: HCC-2998 colon
SK-MEL-2 melanoma = system: SK-MEL-2 melanoma
COLO 205 colon = system: COLO 205 colon
HL-60(TB) leukemia = system: HL-60(TB) leukemia
SF-295 CNS = system: SF-295 CNS
SF-539 CNS = system: SF-539 CNS
MOLT-4 leukemia = system: MOLT-4 leukemia
M14 melanoma = system: M14 melanoma
NCI-H460 lung = system: NCI-H460 lung
MDA-MB-231 breast = system: MDA-MB-231 breast
NCI-H23 lung = system: NCI-H23 lung
UO-31 renal = system: UO-31 renal
BT-549 breast = system: BT-549 breast
NCI-H226 lung = system: NCI-H226 lung
UACC-257 melanoma = system: UACC-257 melanoma
A498 renal = system: A498 renal
EKVX NSCLC = system: EKVX NSCLC
OVCAR-8 ovarian = system: OVCAR-8 ovarian
MDA-N = system: MDA-N
OVCAR-4 ovarian = system: OVCAR-4 ovarian
HT29 colon = system: HT29 colon
SK-MEL-5 melanoma = system: SK-MEL-5 melanoma
DU-145 prostate = system: DU-145 prostate
OVCAR-5 ovarian = system: OVCAR-5 ovarian
TK-10 renal = system: TK-10 renal
K-562 leukemia = system: K-562 leukemia
HS 578T breast = system: HS 578T breast
SNB-19 CNS = system: SNB-19 CNS
CCRF-CEM leukemia = system: CCRF-CEM leukemia
HOP-62 NSCLC = system: HOP-62 NSCLC
A549 NSCLC = system: A549 NSCLC
KM12 colon = system: KM12 colon
OVCAR-3 ovarian = system: OVCAR-3 ovarian
HCT-15 colon = system: HCT-15 colon
NCI/ADR-RES ovarian = system: NCI/ADR-RES ovarian

Which results are given for `c1ccc2c(c1)Oc1cccc3cccc-2c13`?
TGI (T-47D breast): > 100 µM; TGI (MCF7 breast): > 100 µM; TGI (RXF 393 renal): > 100 µM; TGI (HOP-92 NSCLC): > 100 µM; TGI (786-0 renal): > 100 µM; TGI (RPMI-8226 leukemia): > 100 µM; TGI (IGROV1 ovarian): > 100 µM; TGI (SNB-75 CNS): > 100 µM; TGI (HCT-116 colon): > 100 µM; TGI (NCI-H522 lung): > 100 µM; TGI (SK-MEL-28 melanoma): > 100 µM; TGI (CAKI-1 renal): > 100 µM; TGI (MDA-MB-435): > 100 µM; TGI (ACHN renal): > 100 µM; TGI (SF-268 CNS): > 100 µM; TGI (PC-3 prostate): > 100 µM; TGI (UACC-62 melanoma): > 100 µM; TGI (MALME-3M melanoma): > 100 µM; TGI (SN12C renal): > 100 µM; TGI (SW-620 colon): > 100 µM; TGI (SK-OV-3 ovarian): > 100 µM; TGI (LOX IMVI melanoma): > 100 µM; TGI (U251 CNS): > 100 µM; TGI (HCC-2998 colon): > 100 µM; TGI (SK-MEL-2 melanoma): > 100 µM; TGI (COLO 205 colon): > 100 µM; TGI (HL-60(TB) leukemia): > 100 µM; TGI (SF-295 CNS): > 100 µM; TGI (SF-539 CNS): > 100 µM; TGI (MOLT-4 leukemia): > 100 µM; TGI (M14 melanoma): > 100 µM; TGI (NCI-H460 lung): > 100 µM; TGI (MDA-MB-231 breast): > 100 µM; TGI (NCI-H23 lung): > 100 µM; TGI (UO-31 renal): > 100 µM; TGI (BT-549 breast): > 100 µM; TGI (NCI-H226 lung): > 100 µM; TGI (UACC-257 melanoma): > 100 µM; TGI (A498 renal): > 100 µM; TGI (EKVX NSCLC): > 100 µM; TGI (OVCAR-8 ovarian): > 100 µM; TGI (MDA-N): > 100 µM; TGI (OVCAR-4 ovarian): > 100 µM; TGI (HT29 colon): > 100 µM; TGI (SK-MEL-5 melanoma): > 100 µM; TGI (DU-145 prostate): > 100 µM; TGI (OVCAR-5 ovarian): > 100 µM; TGI (TK-10 renal): > 100 µM; TGI (K-562 leukemia): > 100 µM; TGI (HS 578T breast): > 100 µM; TGI (SNB-19 CNS): > 100 µM; TGI (CCRF-CEM leukemia): > 100 µM; TGI (HOP-62 NSCLC): > 100 µM; TGI (A549 NSCLC): > 100 µM; TGI (KM12 colon): > 100 µM; TGI (OVCAR-3 ovarian): > 100 µM; TGI (HCT-15 colon): > 100 µM; TGI (NCI/ADR-RES ovarian): > 100 µM

For `COc1cc(C(=O)N(C)N(C)C)cc(OC)c1OC`, which TGI (T-47D breast) is on record?
The TGI was > 10 µM.

And the TGI (MCF7 breast)?
Its TGI is > 10 µM.

What about the TGI (RXF 393 renal) of the same compound?
The TGI was > 10 µM.

What about the TGI (HOP-92 NSCLC) of the same compound?
Its TGI is > 10 µM.

And the TGI (786-0 renal)?
The TGI was > 10 µM.

And the TGI (RPMI-8226 leukemia)?
Its TGI is > 10 µM.

And the TGI (IGROV1 ovarian)?
Its TGI is > 10 µM.

And the TGI (SNB-75 CNS)?
Its TGI is > 10 µM.

And the TGI (HCT-116 colon)?
The TGI was > 10 µM.

And the TGI (NCI-H522 lung)?
Its TGI is > 10 µM.

And the TGI (SK-MEL-28 melanoma)?
Its TGI is > 10 µM.

What about the TGI (CAKI-1 renal) of the same compound?
Its TGI is > 10 µM.

And the TGI (MDA-MB-435)?
Its TGI is > 10 µM.

And the TGI (ACHN renal)?
The TGI was > 10 µM.

And the TGI (SF-268 CNS)?
The TGI was > 10 µM.

What about the TGI (PC-3 prostate) of the same compound?
Its TGI is > 10 µM.

What about the TGI (UACC-62 melanoma) of the same compound?
The TGI was > 10 µM.

What about the TGI (MALME-3M melanoma) of the same compound?
The TGI was > 10 µM.

What about the TGI (SN12C renal) of the same compound?
The TGI was > 10 µM.

And the TGI (SW-620 colon)?
The TGI was > 10 µM.

What about the TGI (SK-OV-3 ovarian) of the same compound?
Its TGI is > 10 µM.

What about the TGI (LOX IMVI melanoma) of the same compound?
Its TGI is > 10 µM.

And the TGI (U251 CNS)?
Its TGI is > 10 µM.

And the TGI (HCC-2998 colon)?
Its TGI is > 10 µM.

And the TGI (SK-MEL-2 melanoma)?
Its TGI is > 10 µM.

And the TGI (COLO 205 colon)?
Its TGI is > 10 µM.

What about the TGI (HL-60(TB) leukemia) of the same compound?
The TGI was > 10 µM.

And the TGI (SF-295 CNS)?
Its TGI is > 10 µM.

And the TGI (SF-539 CNS)?
The TGI was > 10 µM.

And the TGI (MOLT-4 leukemia)?
The TGI was > 10 µM.

What about the TGI (M14 melanoma) of the same compound?
Its TGI is > 10 µM.

And the TGI (NCI-H460 lung)?
The TGI was > 10 µM.

What about the TGI (MDA-MB-231 breast) of the same compound?
The TGI was > 10 µM.

What about the TGI (NCI-H23 lung) of the same compound?
The TGI was > 10 µM.

And the TGI (UO-31 renal)?
The TGI was > 10 µM.

And the TGI (BT-549 breast)?
The TGI was > 10 µM.

What about the TGI (NCI-H226 lung) of the same compound?
The TGI was > 10 µM.

And the TGI (UACC-257 melanoma)?
The TGI was > 10 µM.

And the TGI (A498 renal)?
Its TGI is > 10 µM.

What about the TGI (EKVX NSCLC) of the same compound?
The TGI was > 10 µM.

And the TGI (OVCAR-8 ovarian)?
The TGI was > 10 µM.

What about the TGI (MDA-N) of the same compound?
The TGI was > 10 µM.

And the TGI (OVCAR-4 ovarian)?
Its TGI is > 10 µM.

What about the TGI (HT29 colon) of the same compound?
The TGI was > 10 µM.

And the TGI (SK-MEL-5 melanoma)?
Its TGI is > 10 µM.

And the TGI (DU-145 prostate)?
The TGI was > 10 µM.

And the TGI (OVCAR-5 ovarian)?
The TGI was > 10 µM.

And the TGI (TK-10 renal)?
The TGI was > 10 µM.

What about the TGI (K-562 leukemia) of the same compound?
The TGI was > 10 µM.

And the TGI (HS 578T breast)?
Its TGI is > 10 µM.

And the TGI (SNB-19 CNS)?
The TGI was > 10 µM.

What about the TGI (CCRF-CEM leukemia) of the same compound?
Its TGI is > 10 µM.

And the TGI (HOP-62 NSCLC)?
The TGI was > 10 µM.

What about the TGI (A549 NSCLC) of the same compound?
Its TGI is > 10 µM.

And the TGI (KM12 colon)?
Its TGI is > 10 µM.

What about the TGI (OVCAR-3 ovarian) of the same compound?
The TGI was > 10 µM.

What about the TGI (HCT-15 colon) of the same compound?
Its TGI is > 10 µM.

And the TGI (NCI/ADR-RES ovarian)?
The TGI was > 10 µM.
